PubChem BioAssay (NCI)
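Briefly, cells in 96-well plates were exposed to five compound concentrations for 48 h, and endpoints were estimated by linear interpolation. TGI is the concentration that stops growth completely.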

Key:
Experiment in all cases: NCI anticancer screen, dose series, 48 h
HCT-15 colon = test system: HCT-15 colon
U251 CNS = test system: U251 CNS
UACC-257 melanoma = test system: UACC-257 melanoma
DU-145 prostate = test system: DU-145 prostate
HT29 colon = test system: HT29 colon
HS 578T breast = test system: HS 578T breast
A498 renal = test system: A498 renal
NCI-H522 lung = test system: NCI-H522 lung
SF-268 CNS = test system: SF-268 CNS
SF-295 CNS = test system: SF-295 CNS
OVCAR-8 ovarian = test system: OVCAR-8 ovarian
SK-OV-3 ovarian = test system: SK-OV-3 ovarian
M14 melanoma = test system: M14 melanoma
HL-60(TB) leukemia = test system: HL-60(TB) leukemia
NCI/ADR-RES ovarian = test system: NCI/ADR-RES ovarian
CAKI-1 renal = test system: CAKI-1 renal
HOP-62 NSCLC = test system: HOP-62 NSCLC
OVCAR-5 ovarian = test system: OVCAR-5 ovarian
K-562 leukemia = test system: K-562 leukemia
HCT-116 colon = test system: HCT-116 colon

| Compound | TGI (HCT-15 colon) | TGI (U251 CNS) | TGI (UACC-257 melanoma) | TGI (DU-145 prostate) | TGI (HT29 colon) | TGI (HS 578T breast) | TGI (A498 renal) | TGI (NCI-H522 lung) | TGI (SF-268 CNS) | TGI (SF-295 CNS) | TGI (OVCAR-8 ovarian) | TGI (SK-OV-3 ovarian) | TGI (M14 melanoma) | TGI (HL-60(TB) leukemia) | TGI (NCI/ADR-RES ovarian) | TGI (CAKI-1 renal) | TGI (HOP-62 NSCLC) | TGI (OVCAR-5 ovarian) | TGI (K-562 leukemia) | TGI (HCT-116 colon) |
| --- | --- | --- | --- | --- | --- | --- | --- | --- | --- | --- | --- | --- | --- | --- | --- | --- | --- | --- | --- | --- |
| CCCC[C@H]1[C@@H](OCOc2ccccc2)COC(=O)N1[C@H](C)c1ccccc1 | 44.6 µM | 42.3 µM | 29.5 µM | 53.3 µM | > 59 µM | 52.8 µM | 29.4 µM | 29.2 µM | 38.7 µM | 50.6 µM | > 100 µM | > 56.1 µM | 31.2 µM | 59.4 µM | > 66.1 µM | 30.5 µM | 29.8 µM | 43.6 µM | > 100 µM | 20.8 µM |
| O=[N+]([O-])c1ccc(N=Nc2c(O)ccc3ccccc23)c([N+](=O)[O-])c1 | > 100 µM | > 100 µM | > 100 µM | > 100 µM | > 100 µM | > 100 µM | > 100 µM | > 100 µM | > 100 µM | > 100 µM | > 100 µM | > 100 µM | > 100 µM | – | > 100 µM | > 100 µM | > 100 µM | > 100 µM | > 71.4 µM | > 100 µM |
| CC(C)OP(=O)(OC(C)C)c1nc(-c2ccccc2)n(-c2ccc([N+](=O)[O-])cc2)n1 | > 100 µM | > 100 µM | > 100 µM | – | > 100 µM | – | > 100 µM | > 100 µM | > 100 µM | > 100 µM | > 100 µM | > 100 µM | > 100 µM | > 100 µM | – | > 100 µM | > 100 µM | > 100 µM | > 100 µM | > 100 µM |
| COc1cc2cc3c4cc(OC)c(OC)cc4cc[n+]3cc2cc1OC | > 100 µM | > 100 µM | > 100 µM | – | > 100 µM | – | > 100 µM | > 100 µM | > 100 µM | > 100 µM | > 100 µM | > 100 µM | – | – | > 100 µM | > 100 µM | > 100 µM | > 100 µM | > 100 µM | > 100 µM |
| O=P1(Oc2ccc(Cl)cc2Cl)Oc2ccc3ccccc3c2-c2c(ccc3ccccc23)O1 | > 77.1 µM | 47.5 µM | > 100 µM | – | > 100 µM | – | > 95.4 µM | 50.7 µM | > 100 µM | > 94.7 µM | > 100 µM | > 100 µM | – | 53.8 µM | > 100 µM | 43.3 µM | 40 µM | > 100 µM | > 100 µM | > 75.1 µM |
